Test results: US11129807B2, “Methods of treating schizophrenia” (Sunovion Pharmaceuticals Inc., priority 2017, dated 2021)

Experiments:
[1] = tested on: Pre-pulse Inhibition (PPI) in Mice; assay: Pre-pulse inhibition (PPI) of startle in mice;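 also: plus grades count prepulse intensities with significant PPI increase at P below 0.05 and minus means no change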; assay type: in vivo; details: 30 min prior to PPI test, male C57Bl/6J mice, vs. vehicle
Description: (§1) Anti-psychotic like activity of the compounds was evaluated in mice using the PCP hyperactivity and Pre-Pulse Inhibition (PPI) models of schizophrenia.
(§2) Methods: Animals: Male C57Bl/6J mice from Jackson Laboratories (Bar Harbor, Me.) were used. Upon receipt, mice were assigned unique identification numbers (tail marked) and were group housed with 4 mice per cage in OptiMICE ventilated cages. All animals remained housed in groups of four during the remainder of the study. All mice were acclimated to the colony room for at least two weeks prior to testing. During the period of acclimation, mice were examined on a regular basis, handled, and weighed to assure adequate health and suitability. Animals were maintained on a 12/12 light/dark cycle. The room temperature was maintained between 20 and 23° C. with a relative humidity maintained between 30% and 70%. Chow and water were provided ad libitum for the duration of the study. In each test, animals were randomly assigned across treatment groups.
Prepulse Inhibition of Startle: The acoustic startle is an unconditioned reflex response to an external auditory stimulus. Prepulse inhibition of startle (PPI) refers to the reduction in the startle response caused by the presentation of a low-intensity auditory stimulus prior to the startle stimulus. The PPI paradigm is used for the study of schizophrenia and antipsychotic action due to the similarities between the results from human and rodent studies. […] Various psychotomimetic drugs such as PCP can disrupt PPI. In mice, antipsychotic drugs such as clozapine can reverse the disruption of PPI induced by PCP.
Mice were placed in the PPI chambers (Med Associates) for a 5 min session of white noise (70 dB) habituation. After the habituation period the test session was initiated. The session started with a habituation block of 6 presentations of the startle stimulus alone, followed by 10 PPI blocks, each of which consisted of 6 different types of trials. Trial types were: ‘null’ (no stimuli), ‘startle’ (120 dB), ‘startle plus prepulse’ (4, 8 and 12 dB over background noise, i.e., 74, 78 or 82 dB) and ‘prepulse’ (82 dB). Trial types were presented in a random order within each block. Each trial started with a 50 ms stimulus-free period during which baseline movements were recorded. This was followed by a subsequent 20 ms period during which the prepulse stimulus was presented and responses to the prepulse measured. After a further 100 ms period, the startle stimulus was presented for 40 ms and responses recorded for 100 ms from startle onset. Responses were sampled every ms. The inter-trial interval was variable with an average of 15 s (range from 10 to 20 s). In ‘startle’ trials the basic auditory startle response was measured. The basic startle response was calculated as the mean startle response of all ‘startle’ trials (i.e., excluding the first habituation block). In ‘startle plus prepulse’ trials the degree of inhibition of the normal startle was calculated and expressed as a percentage of the basic startle response.
Mice were treated with vehicle, haloperidol (1 mg/kg; i.p) or test compound 30 min prior to PPI test. The PPI enclosures were cleaned following each test.

[2] = tested on: PCP-Induced Hyperactivity Responses in Mice; assay: PCP-induced hyperactivity (open field) in mice;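 also: plus means significant inhibition of PCP hyperactivity at P below 0.05 and minus means none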; assay type: in vivo; details: male C57Bl/6J mice, vs. vehicle + PCP
Description: as §1, §2
The analysis was configured to divide the open field into a center and periphery zone. Distance traveled was measured from horizontal beam breaks as the mouse moved whereas rearing activity was measured from vertical beam breaks.
Mice were injected with vehicle, test compound, or clozapine (1 mg/kg; i.p) and placed in the OF chambers for 30 min measurement of baseline activity. Mice were then injected with either water or PCP (5 mg/kg; i.p) and placed back in the OF chambers for a 60-minute session. At the end of each OF test session the OF chambers were thoroughly cleaned.

[3] = 10 mg/kg Compound + PCP (5 mg/kg; i.p)
[4] = 30 mg/kg Compound + PCP (5 mg/kg; i.p)
[5] = 100 mg/kg Compound + PCP (5 mg/kg; i.p)
[6] = 0.3 mg/kg Compound + PCP (5 mg/kg; i.p)
[7] = 1 mg/kg Compound + PCP (5 mg/kg; i.p)
[8] = 3 mg/kg Compound + PCP (5 mg/kg; i.p)

SMILES	Effect on Pre-pulse Inhibition (PPI) ([1]; 10 mg/kg)	Effect on Pre-pulse Inhibition (PPI) ([1]; 30 mg/kg)	Effect on Pre-pulse Inhibition (PPI) ([1]; 100 mg/kg)	Total Distance Traveled (cm) [2, 3]	Total Distance Traveled (cm) [2, 4]	Total Distance Traveled (cm) [2, 5]	Effect on Pre-pulse Inhibition (PPI) ([1]; 3 mg/kg)	Total Distance Traveled (cm) [2, 6]	Total Distance Traveled (cm) [2, 7]	Total Distance Traveled (cm) [2, 8]
NC[C@@H]1OCCc2sccc21 [Compound 2]	−	−	+++	+	+	−				
CNC[C@@H]1OCCc2c(C)csc21 [Compound 171]	−	−	+++	−	+		−	−	−	−
CCc1cc2c(s1)CCO[C@H]2CNC [Compound 75]	−	−	−	+	−	+				
CCNC[C@@H]1OCCc2sccc21 [Compound 310]	−	+++		+	+		−	+	−	−
[2H]C([2H])([2H])NC[C@H]1OCCc2sccc21 [Compound 158]	−	−	+++	+	+	+	−		+	+
Cc1csc2c1CCO[C@@H]2CN [Compound 170]	+++	+++		−	−		−	−	−	−
CNC[C@@H]1OCCc2scc(C)c21 [Compound 130]	−	−		+	+	+	−	−	−	+
CNC[C@H]1OCCc2sc(C)cc21 [Compound 58]	+++	+	+++	+	+	+				
CNC[C@@H]1OCCc2sc(C)cc21 [Compound 57]	−	−	++	+	+	+				
c1cc2c(s1)[C@@H]([C@H]1CCCN1)OCC2 [Compound 205]	−	+++		+	+		−	+	+	+
CCc1cc2c(s1)CCO[C@@H]2CNC [Compound 76]	−	−	−	−	−	+				
CNC[C@H]1OCCc2c(C)csc21 [Compound 172]	−	−	−	−	−		−	−	+	+
CCc1cc2c(s1)CCOC2CNC (centres unmarked) [Compound 10]	+++	+++	+++	+	+	+				
CNC[C@@H]1OCCc2sccc21 [Compound 27]	−	−	−	+	+	+		−	−	−
CNCC1OCCc2c(C)csc21 (centres unmarked) [Compound 140]	−	−	−	−	−	+				
NC[C@@H]1OCCc2ccsc21 [Compound 127]	−	+++		+	−		+++	−	−	+
